Values quoted from earlier work as cited in patent publication US12194020B2, “Reversing baldness through cannabinoid receptor activation” (priority 2017, dated 2025).

Columns and labels:
[1] = tested on: human scalp hair follicles (HF); conditions: human HF organ culture
CB2 = CB2 (Homo sapiens, UniProt P34972)
[2] = bimatoprost applied to the base of the fingernails
NO production = conditions: read-out: IC50, inhibits NO production

CB2, sequence (P34972 whole entry, species assumed): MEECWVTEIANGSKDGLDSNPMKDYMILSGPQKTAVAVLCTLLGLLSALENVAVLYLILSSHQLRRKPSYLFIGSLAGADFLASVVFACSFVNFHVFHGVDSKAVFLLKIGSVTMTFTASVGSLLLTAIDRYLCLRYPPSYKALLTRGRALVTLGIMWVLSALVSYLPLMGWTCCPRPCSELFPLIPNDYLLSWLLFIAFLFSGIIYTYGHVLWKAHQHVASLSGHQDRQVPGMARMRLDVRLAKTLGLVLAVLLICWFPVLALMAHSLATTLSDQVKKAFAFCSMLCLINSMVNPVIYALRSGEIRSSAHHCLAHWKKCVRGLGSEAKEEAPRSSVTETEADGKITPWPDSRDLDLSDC

CCCCC/C=C\C/C=C\C/C=C\C/C=C\CCCC(=O)NCCO [AEA, N-arachidonoylethanolamide]
apoptosis of cultured human HF / hair matrix keratinocytes [1]: stimulates apoptosis | hair matrix / HF keratinocyte proliferation [1]: significantly (P<0.05) and dose-dependently inhibited | hair shaft elongation [1]: significantly (P<0.05) and dose-dependently inhibited

Cc1c(C(=O)NN2CCCCC2)nn(-c2ccc(Cl)cc2Cl)c1-c1ccc(Cl)cc1 [SR141716A]
affinity for CB2 (CB2): very low affinity

CCCCCc1cc(O)c2c(c1)OC(C)(C)[C@@H]1CCC(C)=C[C@@H]21 [THC, Δ^9-tetrahydrocannabinol]
apoptosis of cultured human HF / hair matrix keratinocytes [1]: induced | catagen development [1]: premature catagen development | hair matrix / HF keratinocyte proliferation [1]: suppressed proliferation | hair shaft elongation [1]: significantly inhibited

CCNC(=O)CCC/C=C\C[C@@H]1[C@@H](/C=C/[C@@H](O)CCc2ccccc2)[C@H](O)C[C@@H]1O [bimatoprost]
increase in fingernail growth from baseline [2]: 16.9%

C=CCc1ccc(O)c(-c2cc(CC=C)ccc2O)c1 [magnolol]
IC50 (NO production): ~6.2 µM

desulfohaplosamate
affinity for CB2 (CB2): higher affinity

haplosamate A
affinity for CB1 (CB1): strong affinity
